# Experimental data taken from article PMC8733726, “Dioctanoyl Ultrashort Tetrabasic β-Peptides Sensitize Multidrug-Resistant Gram-Negative Bacteria to Novobiocin and Rifampicin” (Frontiers in Microbiology, 2021).
# Where two headings read alike, the source gives them in different places.
# What was measured:
# P. aeruginosa PAO1 = type: cell-based, Pseudomonas aeruginosa; settings: PAO1, 18 h
# Method: (§1) The in vitro antibacterial activities of dUSTBβPs were evaluated using microbroth dilution susceptibility test, in accordance with the Clinical and Laboratory Standards Institute (CLSI) guidelines ([Clinical and Laboratory Standards Institute, 2019]). Overnight-grown bacterial culture diluted in saline to 0.5 McFarland turbidity was successively diluted 1:50 in Mueller-Hinton broth (MHB) to achieve a final concentration of 5 × 10^5 colony forming units (CFU)/mL for inoculation. The agents were serially diluted 2-fold in MHB on a 96-well plate; mixed with bacterial inoculum of equal volumes, and incubated at 37°C for 18 h. Antibacterial activity was determined by the minimum inhibitory concentration (MIC), which is the lowest concentration of agent required for inhibition of visible bacterial growth in the form of turbidity. Confirmation of turbidity was done using an EMax Plus microplate reader (Molecular Devices, United States) at a wavelength of 590 nm. Wells comprising MHB alone or MHB inoculated with bacteria were used as negative or positive controls, respectively.
# in vitro [1] = type: cell-based; settings: human
# Method: The degree of hemolysis induced by dUSTBβPs was determined by the amount of hemoglobin released from human erythrocytes upon incubation. Fresh human blood supplied by a commercial vendor was obtained from normal healthy volunteers following informed consent. The agent of interest was serially diluted in vehicle consisting of phosphate-buffered saline (PBS), saline, 5% glucose, or equivalents. The samples were incubated with gentle mixing at 37°C for 45 min and were subsequently centrifuged. The supernatant (plasma layer) was removed and centrifuged once more to completely pellet the cells. The plasma layer was diluted with Drabkin’s reagent and analyzed at a wavelength of 540 nm. Experiments were conducted in triplicates, and a calibration curve prepared by diluting blood (after addition of vehicle) was used to quantitate heme release. The vehicle or Triton X-100 were used as negative or positive controls, respectively.
# E. coli ATCC 25922 [2] = type: cell-based, Escherichia coli; settings: ATCC 25922, 18 h
# Method: as §1
# A. baumannii ATCC 17978 [3] = type: cell-based, Acinetobacter baumannii; settings: ATCC 17978, 18 h
# Method: as §1
# in vitro [4] = type: cell-based; settings: human; remark: listed apart in the source
# Method: (§2) Cell viability assay was performed essentially as previously described ([[…] et al., 2019]). […] The cells were detached with trypsin and equal numbers of cells (8,000 cells in 50 μL) were dispersed into five rows of each column in 96-well plate; the remaining three rows of each column, designated as blanks, received 50 μL of the media without cells. After 24 h incubation, aliquots of 50 μL of dUSTBβP 3 at varying concentrations were added to each well and incubated for 48 h. […] Values from the wells without cells (blank wells) were subtracted from the corresponding sample wells and cell viability values of the treated samples relative to the vehicle controls set to 100% was determined. […] The results represent the mean ± SD of two independent experiments with five samples per experiment. […] Colistin was used as a negative control and doxorubicin, an anticancer drug, was used as a positive control.
# Cell viability assay = type: cell-based; settings: human
# Method: as §2
# E. coli ATCC 25922 [5] = type: cell-based, Escherichia coli; settings: not told
# Method: (§3) The ability of dUSTBβP 3 to permeabilize the OM of Acinetobacter baumannii ATCC 17978 and Escherichia coli ATCC 25922 was assessed using 1-N-phenylnaphthylamine (NPN) as previously described with minor modifications ([Yang et al., 2017]; [Akhoundsadegh et al., 2019]). Overnight grown culture was subcultured (1 in 100) in fresh LB broth and grown to a mid-logarithmic phase (OD600 = 0.4–0.6). […] NPN (10 μM final concentration) was added to a black 96-well plate containing the cell culture and incubated in 5 mM HEPES (pH 7.2) supplemented with 5 mM glucose and 5 μM carbonyl cyanide 3-chlorophenylhydrazone at room temperature for 30 min in darkness. Varying concentrations of compound were added onto the suspension, and the resulting change in NPN fluorescence was measured continuously (every 30 s) on a SpectraMax M2 microplate reader (Molecular Devices, United States) at an excitation wavelength of 350 nm and an emission wavelength of 420 nm. Cells with NPN and the OM permeabilizer PMBN served as a positive control, while cells with NPN alone served as a negative control. Three replicates were conducted, and the data were corrected for any background fluorescence.
# A. baumannii ATCC 17978 [6] = type: cell-based, Acinetobacter baumannii; settings: not told
# Method: as §3
# MDR K. pneumoniae = type: cell-based, Klebsiella pneumoniae; settings: antibiotic alone
# Method: (§4) The adjuvant activities of dUSTBβPs were evaluated using checkerboard assay as previously described ([Berry et al., 2019]). Overnight-grown bacterial culture diluted in saline to 0.5 McFarland turbidity was successively diluted 1:50 in MHB to achieve a final concentration of 5 × 10^5 CFU/mL for inoculation. The antibiotic and adjuvant were serially diluted 2-fold along the x-axis and y-axis, respectively, resulting in varying concentrations of both agents in each well. Subsequently, the 96-well plate was incubated with equal volumes of bacterial inoculum at 37°C for 18 h. Confirmation of turbidity was done using an EMax Plus microplate reader (Molecular Devices, United States) at a wavelength of 590 nm. Wells comprising MHB alone or in the presence of bacterial cells were used as negative or positive controls, respectively. Fractional inhibitory concentration index (FICI) is determined by adding the FICs of both antibiotic and adjuvant. The FIC of the antibiotic is calculated by dividing the MIC of the antibiotic in the presence of the adjuvant by the MIC of the antibiotic alone. Similarly, the FIC of the adjuvant is calculated by dividing the MIC of the adjuvant in the presence of the antibiotic by the MIC of the adjuvant alone. FICI ≤ 0.5, 0.5 < x ≤ 4, and >4 were deemed synergistic, additive, and antagonistic, respectively ([Meletiadis et al., 2010]).
# MDR A. baumannii 110193 = experiment: Time-kill assay; type: cell-based, Acinetobacter baumannii; settings: 32 μg/mL novobiocin or 0.5 μg/mL rifampicin alone
# Method: (§5) Overnight-grown bacterial culture diluted in PBS to 0.5 McFarland turbidity was successively diluted 1:50 in lysogeny broth (LB). Cell cultures in the presence of dUSTBβP 3, novobiocin, or rifampicin, or combinations of adjuvant and antibiotic were incubated at 37°C. At designated intervals, 100 μL aliquots acquired from each culture tube were serially diluted in PBS and plated on LB agar plates.
# [7] = tested on: wild-type A. baumannii ATCC 17978; experiment: Time-kill assay; type: cell-based, Acinetobacter baumannii; settings: 32 μg/mL novobiocin or 0.5 μg/mL rifampicin alone
# Method: as §5
# [8] = tested on: MDR clinical isolates of A. baumannii; type: cell-based, Acinetobacter baumannii; settings: antibiotic alone
# Method: as §4
# [9] = tested on: wild-type A. baumannii ATCC 17978; experiment: Checkerboard assay; type: cell-based, Acinetobacter baumannii; settings: ATCC 17978
# Description: as §4, with “Overnight-grown” for “The adjuvant activities of dUSTBβPs were evaluated using checkerboard assay as previously described ([Berry et al., 2019]). Overnight-grown”, “Subsequently, the 96-well plate was incubated with equal volumes of bacterial inoculum at 37°C for 18 h.” left out, “alone.” for “alone. FICI ≤ 0.5, 0.5 < x ≤ 4, and >4 were deemed synergistic, additive, and antagonistic, respectively ([Meletiadis et al., 2010]).”
# MDR E. cloacae = experiment: Checkerboard assay, MDR clinical isolates; type: cell-based, Enterobacter cloacae; settings: antibiotic alone
# Method: as §4
# [10] = tested on: wild-type E. coli ATCC 25922; experiment: microbe, parasite or virus in culture; type: cell-based, Escherichia coli; settings: ATCC 25922
# Method in brief: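 2-fold antibiotic × adjuvant checkerboard in MHB; inoculum 5 × 10^5 CFU/mL; 37°C, 18 h; OD590 read. FICI = FIC antibiotic + FIC adjuvant; ≤ 0.5 synergistic, 0.5 < x ≤ 4 additive, >4 antagonistic.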
# [11] = tested on: MDR clinical isolates of P. aeruginosa; experiment: Checkerboard assay, MDR clinical isolates; type: cell-based, Pseudomonas aeruginosa; settings: antibiotic alone
# Method: as §4
# MDR E. coli = type: cell-based, Escherichia coli; settings: antibiotic alone
# Method: as §4
# [12] = tested on: wild-type P. aeruginosa PAO1; experiment: microbe, parasite or virus in culture; type: cell-based, Pseudomonas aeruginosa; settings: PAO1
# Description: as §4, with “Overnight-grown” for “The adjuvant activities of dUSTBβPs were evaluated using checkerboard assay as previously described ([Berry et al., 2019]). Overnight-grown”, “Subsequently, the 96-well plate was incubated with equal volumes of bacterial inoculum at 37°C for 18 h.” left out, “alone.” for “alone. FICI ≤ 0.5, 0.5 < x ≤ 4, and >4 were deemed synergistic, additive, and antagonistic, respectively ([Meletiadis et al., 2010]).”
# [13] = antibiotic with dUSTBβP 3 at 8 μg/mL
molecule,measurement,setting,value
CCCCCCCC(=O)NC(CCCN)CC(=O)NCCCN(CCCNC(=O)CC(CCCN)NC(=O)CCCCCCC)CC(=O)NC(CCCN)CC(N)=O (stereo not drawn) [dUSTBβP 1],MIC,P. aeruginosa PAO1,>128 µg/mL
same,"hemolysis at 45 min, 1.5625 µM",in vitro [1],3.11 ± 0.07%
same,"hemolysis at 45 min, 3.125 µM",in vitro [1],3.12 ± 0.09%
same,"hemolysis at 45 min, 6.25 µM",in vitro [1],3.13%
same,"hemolysis at 45 min, 12.5 µM",in vitro [1],3.16 ± 0.04%
same,"hemolysis at 45 min, 25 µM",in vitro [1],3.12 ± 0.05%
same,"hemolysis at 45 min, 50 µM",in vitro [1],3.17 ± 0.06%
same,"hemolysis at 45 min, 100 µM",in vitro [1],3.35 ± 0.17%
same,"hemolysis at 45 min, 200 µM",in vitro [1],2.26 ± 0.19%
same,MIC,E. coli ATCC 25922 [2],>128 µg/mL
same,MIC,A. baumannii ATCC 17978 [3],>128 µg/mL
COc1cccc2c1C(=O)c1c(O)c3c(c(O)c1C2=O)C[C@@](O)(C(=O)CO)C[C@@H]3O[C@H]1C[C@H](N)[C@H](O)[C@H](C)O1 [doxorubicin],"viability at 48 h, 1 µM",in vitro [4],16.6 ± 2.3%
same,CC50 at 48 h,Cell viability assay,0.032 µM
polymyxin B nonapeptide [PMBN],"OM permeabilization, NPN fluorescence",E. coli ATCC 25922 [5],increased fluorescence of NPN
same,"OM permeabilization, NPN fluorescence",A. baumannii ATCC 17978 [6],increased fluorescence of NPN
CO[C@H]1/C=C/O[C@@]2(C)Oc3c(C)c(O)c4c(O)c(c(/C=N/N5CCN(C)CC5)c(O)c4c3C2=O)NC(=O)/C(C)=C\C=C\[C@H](C)[C@H](O)[C@@H](C)[C@@H](O)[C@@H](C)[C@H](OC(C)=O)[C@@H]1C [Rifampicin],MICantibiotic,MDR K. pneumoniae; 113250,32 µg/mL
same,MICantibiotic,MDR K. pneumoniae; 113254,8 µg/mL
same,MICantibiotic,MDR K. pneumoniae; 116381,> 256 µg/mL
same,MICantibiotic,"MDR K. pneumoniae; 116381, listed as rifampicin",512 µg/mL
same,Time-kill outcome,MDR A. baumannii 110193,Bacteriostatic
same,Time-kill outcome,[7],Bacteriostatic
same,MICantibiotic,[8]; 92247,2 µg/mL
same,MICantibiotic,[8]; 110193,1 µg/mL
same,MICantibiotic,[8]; AB027,1 µg/mL
same,MICantibiotic,[8]; AB031,1 µg/mL
same,MICantibiotic,[8]; LAC-4,0.5 µg/mL
same,MICantibiotic,[9]; antibiotic alone,2 µg/mL
same,MICcombo,[9]; [13],0.008 µg/mL
same,MIC,"[9]; Acinetobacter baumannii, ATCC17978, 18 h, antibiotic alone (Supplementary Table 7), read-out: MICantibiotic",2 µg/mL
same,MICantibiotic,MDR E. cloacae; 117029,8 µg/mL
same,MICantibiotic,MDR E. cloacae; 118564,8 µg/mL
same,MICantibiotic,MDR E. cloacae; 121187,2 µg/mL
same,MICantibiotic,[10]; antibiotic alone,4 µg/mL
same,MICcombo,[10]; [13],0.008 µg/mL
same,MIC,"[10]; Escherichia coli, ATCC25922, 18 h, antibiotic alone (Supplementary Table 7), read-out: MICantibiotic",4 µg/mL
same,MICantibiotic,[11]; PA259-96196,16 µg/mL
same,MICantibiotic,[11]; PA262-101856,512 µg/mL
same,MICantibiotic,[11]; PA264-104354,16 µg/mL
same,MICantibiotic,[11]; PA91433,16 µg/mL
same,MICantibiotic,[11]; PA114228,16 µg/mL
same,MICantibiotic,MDR E. coli; 94393,8 µg/mL
same,MICantibiotic,MDR E. coli; 94474,8 µg/mL
same,MICantibiotic,MDR E. coli; 107115,32 µg/mL
same,MICantibiotic,[12]; antibiotic alone,16 µg/mL
same,MICcombo,[12]; [13],0.25 µg/mL
same,MIC,"[12]; Pseudomonas aeruginosa, 18 h, antibiotic alone (Supplementary Table 7), read-out: MICantibiotic",16 µg/mL
CCCCCCCC(=O)NC(CCCCN)CC(=O)NCCCN(CCCNC(=O)CC(CCCCN)NC(=O)CCCCCCC)CC(=O)NC(CCCCN)CC(N)=O (stereo not drawn) [dUSTBβP 2],MIC,P. aeruginosa PAO1,>128 µg/mL
same,"hemolysis at 45 min, 1.5625 µM",in vitro [1],3.33 ± 0.12%
same,"hemolysis at 45 min, 3.125 µM",in vitro [1],3.28 ± 0.21%
same,"hemolysis at 45 min, 6.25 µM",in vitro [1],3.23 ± 0.11%
same,"hemolysis at 45 min, 12.5 µM",in vitro [1],3.22 ± 0.2%
same,"hemolysis at 45 min, 25 µM",in vitro [1],3.29 ± 0.14%
same,"hemolysis at 45 min, 50 µM",in vitro [1],3.24 ± 0.15%
same,"hemolysis at 45 min, 100 µM",in vitro [1],3.26 ± 0.1%
same,"hemolysis at 45 min, 200 µM",in vitro [1],3.21 ± 0.13%
same,MIC,E. coli ATCC 25922 [2],>128 µg/mL
same,MIC,A. baumannii ATCC 17978 [3],>128 µg/mL
